In patent publication US10717716B2, “1,3,4-oxadiazole derivative compounds as histone deacetylase 6 inhibitor, and the pharmaceutical composition comprising the same” (Chong Kun Dang Pharmaceutical Corp., priority 2015, dated 2020):
Where two headings read alike, the source gives them in different places.

Biological target: T1, human recombinant HDAC6 (Homo sapiens, UniProt Q9UBN7)
T1 construct: purchased Calbiochem 382180
T1 sequence (Q9UBN7 1-1215): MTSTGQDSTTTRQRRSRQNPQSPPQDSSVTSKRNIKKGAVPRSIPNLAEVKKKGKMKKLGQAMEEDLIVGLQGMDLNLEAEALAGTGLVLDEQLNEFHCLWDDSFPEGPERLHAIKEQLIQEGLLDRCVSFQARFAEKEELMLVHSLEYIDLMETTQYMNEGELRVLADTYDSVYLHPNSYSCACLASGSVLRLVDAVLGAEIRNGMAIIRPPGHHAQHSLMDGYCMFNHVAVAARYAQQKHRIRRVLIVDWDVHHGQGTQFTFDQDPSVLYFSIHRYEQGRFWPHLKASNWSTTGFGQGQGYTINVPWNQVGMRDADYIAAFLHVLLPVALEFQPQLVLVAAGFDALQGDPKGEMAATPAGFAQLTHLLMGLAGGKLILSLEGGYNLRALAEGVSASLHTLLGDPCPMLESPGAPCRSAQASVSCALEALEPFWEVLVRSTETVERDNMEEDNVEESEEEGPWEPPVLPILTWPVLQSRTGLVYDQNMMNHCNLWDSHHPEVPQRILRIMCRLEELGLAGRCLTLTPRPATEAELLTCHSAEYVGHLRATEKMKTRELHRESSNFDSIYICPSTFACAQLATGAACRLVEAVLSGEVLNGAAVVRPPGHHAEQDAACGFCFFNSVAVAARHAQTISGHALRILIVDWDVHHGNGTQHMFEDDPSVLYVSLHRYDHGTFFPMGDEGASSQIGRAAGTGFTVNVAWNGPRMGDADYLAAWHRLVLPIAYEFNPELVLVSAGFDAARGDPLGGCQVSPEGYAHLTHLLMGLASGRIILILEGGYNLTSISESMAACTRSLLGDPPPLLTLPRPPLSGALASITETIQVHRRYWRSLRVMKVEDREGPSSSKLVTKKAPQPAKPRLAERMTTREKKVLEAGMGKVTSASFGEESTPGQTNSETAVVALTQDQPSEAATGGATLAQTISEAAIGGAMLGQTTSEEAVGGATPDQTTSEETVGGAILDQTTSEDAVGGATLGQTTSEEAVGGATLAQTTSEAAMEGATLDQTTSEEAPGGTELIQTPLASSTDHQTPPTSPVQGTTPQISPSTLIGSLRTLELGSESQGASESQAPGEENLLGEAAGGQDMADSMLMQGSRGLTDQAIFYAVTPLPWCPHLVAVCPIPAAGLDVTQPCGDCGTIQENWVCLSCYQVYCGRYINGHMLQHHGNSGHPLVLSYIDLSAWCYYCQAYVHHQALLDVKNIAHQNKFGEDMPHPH
Assay: HDAC6 enzyme activity inhibition assay (HDAC Fluorimetric Drug Discovery Kit)
Assay type: biochemical
Conditions: for HDAC6 selectivity (fold): HDAC6 over HDAC1; for IC50: human recombinant HDAC6, same protocol as HDAC1
How it was run: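 Human recombinant HDAC1 or HDAC6 (0.3 μg) reacted with 10 μM Fluor de Lys-SIRT1 substrate and 5-fold compound dilutions for 60 min at 30 °C. Developer II added for 30 min, fluorescence read at Ex 360/Em 460; IC50 calculated from the readings.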

| SMILES | HDAC6 selectivity (fold) | IC50 (read-out: HDAC6) [nM] | IC50 (HDAC6 (nM)) [nM] |
| --- | --- | --- | --- |
| O=C(N1CC2(COC2)C1)N(Cc1ccc(-c2nnc(C(F)F)o2)cn1)c1ccccc1 [Compound 21566, N-((5-(5-(difluoromethyl)-1,3,4-oxadiazol-2-yl)pyridin-2-yl)methyl)-N-phenyl-2-oxa-6-azaspiro[3.3]heptane-6-carboxamide] | 526 | 19 |  |
| CC(C)(C)OC(=O)N(Cc1ccc(-c2nnc(C(F)F)o2)cc1)c1ccccc1 [Compound 21568, Tert-butyl (4-(5-(difluoromethyl)-1,3,4-oxadiazol-2-yl)benzyl)(phenyl)carbamate] | 42 | 237 |  |
| O=C(Oc1ccccc1)N(Cc1ccc(-c2nnc(C(F)F)o2)cc1)c1ccccc1 [Compound 21569, Phenyl (4-(5-(difluoromethyl)-1,3,4-oxadiazol-2-yl)benzyl)(phenyl)carbamate] | 59 |  | 170 |
| CC(C)COC(=O)N(Cc1ccc(-c2nnc(C(F)F)o2)cc1)c1ccccc1 [Compound 21570, Isobutyl (4-(5-(difluoromethyl)-1,3,4-oxadiazol-2-yl)benzyl)(phenyl)carbamate] | 32 | 309 |  |
| CCCCN(Cc1ccc(-c2nnc(C(F)F)o2)cc1)C(=O)Nc1ccccc1 [Compound 21576, 1-Butyl-1-(4-(5-(difluoromethyl)-1,3,4-oxadiazol-2-yl)benzyl)-3-phenylurea] | 24 | 409 |  |
| CN(C)CCNC(=O)N(Cc1ccc(-c2nnc(C(F)F)o2)cc1)c1ccccc1 [Compound 21577, 1-(4-(5-(Difluoromethyl)-1,3,4-oxadiazol-2-yl)benzyl)-3-(2-(dimethylamino)ethyl)-1-phenylurea] | 152 | 66 |  |
| CCN(CCN(C)C)C(=O)N(Cc1ccc(-c2nnc(C(F)F)o2)cc1)c1ccccc1 [Compound 21578, 1-(4-(5-(Difluoromethyl)-1,3,4-oxadiazol-2-yl)benzyl)-3-(2-(dimethylamino)ethyl)-3-ethyl-1-phenylurea] | 233 | 43 |  |
| CN(C)[C@H]1CCN(C(=O)N(Cc2ccc(-c3nnc(C(F)F)o3)cc2F)c2ccc(F)c(Cl)c2)C1 [Compound 21583, (S)—N-(3-chloro-4-fluorophenyl)-N-(4-(5-(difluoromethyl)-1,3,4-oxadiazol-2-yl)-2-fluorobenzyl)-3-(dimethylamino)pyrrolidine-1-carboxamide] | 833 | 12 |  |
| CN(C)[C@@H]1CCN(C(=O)N(Cc2ccc(-c3nnc(C(F)F)o3)cc2F)c2ccc(F)c(Cl)c2)C1 [Compound 21584, (R)—N-(3-chloro-4-fluorophenyl)-N-(4-(5-(difluoromethyl)-1,3,4-oxadiazol-2-yl)-2-fluorobenzyl)-3-(dimethylamino)pyrrolidine-1-carboxamide] | 370 | 27 |  |
| CN(CCO)C(=O)N(Cc1ccc(-c2nnc(C(F)F)o2)cc1)c1ccccc1 [Compound 21585, 1-(4-(5-(Difluoromethyl)-1,3,4-oxadiazol-2-yl)benzyl)-3-(2-hydroxyethyl)-3-methyl-1-phenylurea] | 370 | 27 |  |
| O=C(N1CC2(COC2)C1)N(Cc1ccc(-c2nnc(C(F)F)o2)cc1F)c1ccc(F)c(Cl)c1 [Compound 21586, N-(3-chloro-4-fluorophenyl)-N-(4-(5-(difluoromethyl)-1,3,4-oxadiazol-2-yl)-2-fluorobenzyl)-2-oxa-6-azaspiro[3.3]heptane-6-carboxamide] | 476 | 21 |  |
| O=C(N1CCS(=O)(=O)CC1)N(Cc1ccc(-c2nnc(C(F)F)o2)cn1)c1ccc(F)c(Cl)c1 [Compound 21587, N-(3-chloro-4-fluorophenyl)-N-((5-(5-(difluoromethyl)-1,3,4-oxadiazol-2-yl)pyridin-2-yl)methyl)thiomorpholine-4-carboxamide 1,1-dioxide] | 909 | 11 |  |
| CCN1CCN(C(=O)N(Cc2ccc(-c3nnc(C(F)F)o3)cc2F)c2ccc(F)c(Cl)c2)CC1 [Compound 21591, N-(3-chloro-4-fluorophenyl)-N-(4-(5-(difluoromethyl)-1,3,4-oxadiazol-2-yl)-2-fluorobenzyl)-4-ethylpiperazine-1-carboxamide] | 668 | 15 |  |
| O=C(N1CCOCC1)N(Cc1ccc(-c2nnc(C(F)F)o2)cc1)c1ccc(F)c(Cl)c1 [Compound 21593, N-(3-chloro-4-fluorophenyl)-N-(4-(5-(difluoromethyl)-1,3,4-oxadiazol-2-yl)benzyl)morpholine-4-carboxamide] | 494 | 20 |  |
| O=C(N1CCOCC1)N(Cc1ccc(-c2nnc(C(F)(F)F)o2)cc1)c1ccc(F)c(Cl)c1 [Compound 21594, N-(3-chloro-4-fluorophenyl)-N-(4-(5-(trifluoromethyl)-1,3,4-oxadiazol-2-yl)benzyl)morpholine-4-carboxamide] | 115 | 87 |  |
| Cc1cccc(N(Cc2ccc(-c3nnc(C(F)F)o3)cn2)C(=O)N2CCN(C)CC2)c1 [Compound 21597, N-((5-(5-(difluoromethyl)-1,3,4-oxadiazol-2-yl)pyridin-2-yl)methyl)-4-methyl-N-(m-tolyl)piperazine-1-carboxamide] | 323 | 31 |  |
| Cc1ccc(N(Cc2ccc(-c3nnc(C(F)F)o3)cn2)C(=O)N2CCN(C)CC2)cc1 [Compound 21598, N-((5-(5-(difluoromethyl)-1,3,4-oxadiazol-2-yl)pyridin-2-yl)methyl)-4-methyl-N-(p-tolyl)piperazine-1-carboxamide] | 238 | 42 |  |
| CN1CCN(C(=O)N(Cc2ccc(-c3nnc(C(F)F)o3)cn2)c2cccc(F)c2)CC1 [Compound 21599, N-((5-(5-(difluoromethyl)-1,3,4-oxadiazol-2-yl)pyridin-2-yl)methyl)-N-(3-fluorophenyl)-4-methylpiperazine-1-carboxamide] | 500 | 20 |  |
| CN1CCN(C(=O)N(Cc2ccc(-c3nnc(C(F)F)o3)cn2)c2ccc(F)cc2)CC1 [Compound 21600, N-((5-(5-(difluoromethyl)-1,3,4-oxadiazol-2-yl)pyridin-2-yl)methyl)-N-(4-fluorophenyl)-4-methylpiperazine-1-carboxamide] | 400 | 25 |  |
| CN(C)[C@H]1CCN(C(=O)N(Cc2ccc(-c3nnc(C(F)F)o3)cn2)c2ccc(F)c(Cl)c2)C1 [Compound 21601, (S)—N-(3-chloro-4-fluorophenyl)-N-((5-(5-(difluoromethyl)-1,3,4-oxadiazol-2-yl)pyridin-2-yl)methyl)-3-(dimethylamino)pyrrolidine-1-carboxamide] | 192 | 52 |  |
| CN(C)[C@@H]1CCN(C(=O)N(Cc2ccc(-c3nnc(C(F)F)o3)cn2)c2ccc(F)c(Cl)c2)C1 [Compound 21602, (R)—N-(3-chloro-4-fluorophenyl)-N-((5-(5-(difluoromethyl)-1,3,4-oxadiazol-2-yl)pyridin-2-yl)methyl)-3-(dimethylamino)pyrrolidine-1-carboxamide] | 526 | 19 |  |
| O=C(N1CCOCC1)N(Cc1ccc(-c2nnc(C(F)F)o2)cn1)c1ccc(F)c(Cl)c1 [Compound 21619, N-(3-chloro-4-fluorophenyl)-N-((5-(5-(difluoromethyl)-1,3,4-oxadiazol-2-yl)pyridin-2-yl)methyl)morpholine-4-carboxamide] | 517 | 19 |  |
| CN1CCN(C(=O)N(Cc2ccc(-c3nnc(C(F)F)o3)cn2)c2ccc(F)c(Cl)c2)CC1 [Compound 21620, N-(3-chloro-4-fluorophenyl)-N-((5-(5-(difluoromethyl)-1,3,4-oxadiazol-2-yl)pyridin-2-yl)methyl)-4-methylpiperazine-1-carboxamide] | 383 | 26 |  |
